Assay results: ChEMBL document CHEMBL1201862, “PubChem BioAssay data set” (2004)
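48-hour exposure; five concentrations; linearly interpolated endpoints. The concentration for 50% growth inhibition is given as GI50.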 The source made the active and inactive calls. Rule as the data show it: active = GI50 up to about 1.1 µM and inactive = higher.

What was measured:
Assay in all cases: growth of human tumour cells (NCI), 48 h
[1] = test system: NCI-H226
[2] = test system: A549
[3] = test system: MCF7
[4] = test system: MDA-MB-231
[5] = test system: COLO 205
[6] = test system: T47D
[7] = test system: ACHN
[8] = test system: M14
[9] = test system: UO-31
[10] = test system: NCI/ADR-RES
[11] = test system: LOX IMVI
[12] = test system: UACC-62
[13] = test system: OVCAR-8
[14] = test system: RXF 393
[15] = test system: U-251
[16] = test system: MOLT-4
[17] = test system: MDA-MB-435
[18] = test system: NCI-H522
[19] = test system: Hs-578T
[20] = test system: HCT-116

Row | Structure (SMILES) | GI50 [1] | GI50 [2] | GI50 [3] | GI50 [4] | GI50 [5] | GI50 [6] | GI50 [7] | GI50 [8] | GI50 [9] | GI50 [10] | GI50 [11] | GI50 [12] | GI50 [13] | GI50 [14] | GI50 [15] | GI50 [16] | GI50 [17] | GI50 [18] | GI50 [19] | GI50 [20]
1 | CC(C)Oc1cc2c(cc1O)CC[C@@H]1[C@@H]2CC[C@]2(C)[C@@H](O)CC[C@@H]12 | 3.23 µM (inactive) | 5.52 µM (inactive) | 2.25 µM (inactive) | 8.36 µM (inactive) | 20 µM (inactive) | 4.68 µM (inactive) | 9.89 µM (inactive) | 3.79 µM (inactive) | 6.46 µM (inactive) | 2.07 µM (inactive) | 4.58 µM (inactive) | 2 µM (inactive) | 8.75 µM (inactive) | 3.82 µM (inactive) | 13.3 µM (inactive) | 4.74 µM (inactive) | 0.687 µM (active) | 1.58 µM (inactive) | 2.38 µM (inactive) | 3.33 µM (inactive)
2 | C=CC[C@H]1[C@H](O[Si](C)(C)C(C)(C)C)C=CC(=O)[C@@H]1CC(=O)N(Cc1ccccc1)Cc1ccccc1 | 11.7 µM (inactive) | 20.5 µM (inactive) | 19.5 µM (inactive) | 14.2 µM (inactive) | 12.9 µM (inactive) | 3.3 µM (inactive) | 15 µM (inactive) | 18.1 µM (inactive) | 11.7 µM (inactive) | 10.8 µM (inactive) | 12.5 µM (inactive) | 13.5 µM (inactive) | 16.1 µM (inactive) | 6.15 µM (inactive) | 19.3 µM (inactive) | 9.93 µM (inactive) | 20.9 µM (inactive) | 5.01 µM (inactive) | 6.27 µM (inactive) | 8.2 µM (inactive)
3 | O=C(O)C1C2C=CC(O2)C1C(=O)Nc1ccccc1 (stereo not given) | > 100 µM (inactive) | > 100 µM (inactive) | > 100 µM (inactive) | > 100 µM (inactive) | > 100 µM (inactive) | > 100 µM (inactive) | > 100 µM (inactive) | > 100 µM (inactive) | > 100 µM (inactive) | > 100 µM (inactive) | > 100 µM (inactive) | > 100 µM (inactive) | > 100 µM (inactive) | > 100 µM (inactive) | > 100 µM (inactive) | > 100 µM (inactive) | > 100 µM (inactive) | > 100 µM (inactive) | > 100 µM (inactive) | > 100 µM (inactive)
4 | c1ccc(CC2COC(c3cccs3)=N2)cc1 (stereo not given) | 67.9 µM (inactive) | 92.7 µM (inactive) | 17.9 µM (inactive) | > 72.6 µM (inactive) | > 100 µM (inactive) | 26 µM (inactive) | 78.5 µM (inactive) | > 100 µM (inactive) | 64.1 µM (inactive) | 48.5 µM (inactive) | > 74.1 µM (inactive) | > 100 µM (inactive) | > 100 µM (inactive) | 24.5 µM (inactive) | 53 µM (inactive) | 47.8 µM (inactive) | > 100 µM (inactive) | > 84.7 µM (inactive) | 49.5 µM (inactive) | 54.7 µM (inactive)
5 | COC(=O)C1C(C(=O)OC)C1(Br)CBr (stereo not given) | > 100 µM (inactive) | > 100 µM (inactive) | 46.1 µM (inactive) | 87.5 µM (inactive) | 20 µM (inactive) | 23.2 µM (inactive) | 25.8 µM (inactive) | 31.5 µM (inactive) | 18.4 µM (inactive) | > 100 µM (inactive) | 20.9 µM (inactive) | > 100 µM (inactive) | 32.5 µM (inactive) | 19.1 µM (inactive) | > 100 µM (inactive) | 6.15 µM (inactive) | 60.5 µM (inactive) | 3.54 µM (inactive) | 89.1 µM (inactive) | 39.3 µM (inactive)
6 | CC1(C)CCC[C@]2(C)[C@@H](C=O)C(C=O)=CC[C@@H]12 [POLYGODIAL] | 20 µM (inactive) | 37.5 µM (inactive) | 14.7 µM (inactive) | 10.6 µM (inactive) | 18.2 µM (inactive) | 19.8 µM (inactive) | 16.9 µM (inactive) | 17.5 µM (inactive) | 16.4 µM (inactive) | 18.6 µM (inactive) | 19.1 µM (inactive) | 18.4 µM (inactive) | 16.4 µM (inactive) | 17.1 µM (inactive) | 19 µM (inactive) | 9.33 µM (inactive) | 36.6 µM (inactive) | 15.8 µM (inactive) | 27.9 µM (inactive) | 28.6 µM (inactive)
